Results published in patent publication US20240115676A1, “SILICIFIED TUMOR CELL COMPOSITIONS AND METHODS” (UNM Rainforest Innovations, priority 2020, published 2024).

Key:
BR5-Akt-Luc2 tumors = experiment: Cisplatin and vaccine combination therapy in late stage ovarian cancer model; format: in vivo, FVB mice; details: cisplatin 2 mg/kg intraperitoneally Day 9, vaccine Day 10 after tumor challenge
Method: Tumor-bearing or naïve female FVB mice were vaccinated intraperitoneally with irradiated (100 Gy at […], 15 mA, 48 Gy/min; or a Cs-137 gamma irradiator with a dose rate of 63 cGy/min) or silicified BR5-Akt (or BR5-Akt-Luc2 for vaccine viability analysis) cells (with TLR ligands as indicated) using doses of 3×10^4, 3×10^5, 3×10^6, or 3×10^7 Si-cells/mouse in 200 μl of PBS at the indicated schedules. Alternatively, mice were vaccinated subcutaneously (SC) with 3×10^6 Si-cells by scruffing the skin at the back of their neck and injecting an equivalent volume into the loose fold of skin. Mice that cleared all tumor cells based on IVIS Spectrum bioluminescent imaging were re-challenged with 2×10^5 BR5-Akt-Luc2 cancer cells at a later date, as indicated for each study. All control (no Tx) mice received sham PBS injections (200 μl/mouse). Single agent or combination therapy with cisplatin used IP administration of cis-diamineplatinum (II) dichloride (Sigma-Aldrich, St. Louis, MO) on Day 9 at 2 mg/kg in physiological saline.
For in vivo monitoring of tumor burden, mice with BR5-Akt-Luc2 tumors were administered 150 mg luciferin/kg by intraperitoneal injection, with a 10-minute delay before imaging. Mice were then anesthetized using 2.5% isoflurane, and 2D/3D bioluminescence images were acquired using an in vivo imaging system (XENOGEN IVIS SPECTRUM, PerkinElmer, Inc., Waltham, MA). […]

[1] = tested on: dendritic cells (CD11c^+); experiment: In vitro activation of dendritic cells (CD40) by silicified tumor cells and doxorubicin-treated cancer cell supernatant; format: cell-based; details: supernatant from cancer cells treated with doxorubicin 5 ng/mL or 50 ng/mL, with vaccine
Method: Dendritic cells were seeded in 12-well plates at a density of 100,000 cells per well. After 24 hours, supernatant from cancer cells treated with doxorubicin (5 ng/mL or 50 ng/mL) was added, with or without 100,000 silicified tumor cells. Cells were labeled with fluorescent antibodies specific for CD40 and CD11c and analyzed using the Attune Flow Cytometer.

Row | Structure (SMILES) | survival (BR5-Akt-Luc2 tumors) | tumor burden (bioluminescence) (BR5-Akt-Luc2 tumors) | activation of dendritic cells (surface expression of CD40) [1]
1 | N.N.[Cl][Pt][Cl] [Cisplatin, cis-diamineplatinum (II) dichloride] | improved survival | reduced tumor burden in some mice | 
2 | COc1cccc2c1C(=O)c1c(O)c3c(c(O)c1C2=O)C[C@@](O)(C(=O)CO)C[C@@H]3O[C@H]1C[C@H](N)[C@H](O)[C@H](C)O1 [doxorubicin] |  |  | enhanced vaccine-mediated activation of dendritic cells
